Test results from publication PMC6220877, “Modified Peptide Inhibitors of the Keap1–Nrf2 Protein–Protein Interaction Incorporating Unnatural Amino Acids” (Chembiochem, 2018).
“And” between values parts separate entries of the source, which are not always exact repeats. Equal entries are not always repeated. Marks after values point to notes of the source that are not given here. Where a SMILES comes first, the peptide text is derived from it. [ ]: non-standard residue; d: D form. The star is where a group is joined. 2Thi = N[C@@H](Cc1cccs1)C(=O)O; Cha = N[C@@H](CC1CCCCC1)C(=O)O; X1 = CC(C)C[C@H](N*)c1nnn[nH]1; Tle = CC(C)(C)[C@H](N)C(=O)O; Pip = O=C(O)[C@@H]1CCCCN1; Thz = O=C(O)[C@@H]1CSCN1; NHIsopentyl = CC(C)CCN*; NHBn = c1ccc(CN*)cc1

Legend:
Assay type in all cases: binding
[1] = molecular target: T1, Keap1 Kelch protein (Homo sapiens, UniProt Q14145); assay: Differential scanning fluorimetry (DSF) thermal shift screen; conditions: 10% DMSO, DPBS pH 7.4, 30 min at RT, 25-95 °C at 1 °C/min, triplicate, Keap1 Kelch Tm 47.0±0.1 °C; for ΔTm at 10 µM: pH 7.4, 10 μM peptide; for DSF ΔTm: 10 μM peptide
T1 construct: made in house; host or cells: E. coli BL21 CodonPlus
T1 sequence (Q14145 321-609 limits assumed): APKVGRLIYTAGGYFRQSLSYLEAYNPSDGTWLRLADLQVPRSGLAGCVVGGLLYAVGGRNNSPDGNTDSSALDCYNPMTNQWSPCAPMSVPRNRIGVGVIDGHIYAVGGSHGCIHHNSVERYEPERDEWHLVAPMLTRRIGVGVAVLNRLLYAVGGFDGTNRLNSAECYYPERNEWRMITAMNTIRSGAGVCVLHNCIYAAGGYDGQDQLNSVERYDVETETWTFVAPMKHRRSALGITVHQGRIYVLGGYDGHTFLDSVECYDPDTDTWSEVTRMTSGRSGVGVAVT
Description: DPBS at pH 7.4 was added to the wells of a MicroAmp® Optical 96-well reaction plate
containing the peptide inhibitor (10 µM, 10% final DMSO concentration, 40 µL final volume).
The plate was sealed using an optical adhesive cover and covered with aluminium foil to
protect the dye from light. The plate was then transferred to a plate centrifuge and spun down
briefly (200 g, 1 min, RT) to remove any bubbles and collect the solution at the bottom of the
wells. Following a 30 min incubation at RT, the plate was placed into a 7500 Real time PCR
machine and subjected to a standard protein melting protocol8 using the 7500 Software
1°C/min. All measurements were run in triplicate. The raw data were exported to MS Excel
and analysis was performed using a custom script provided by the Structural Genomics
Consortium Oxford.[8] The temperature range over which the protein unfolding occurred was
selected and the maximum and minimum (at temperatures below the maximum intensity)
fluorescence intensities within this range were determined. The processed data were fitted to
the Boltzmann equation by linear regression analysis using the Origin Pro software.

[2] = molecular target: T2, Keap1 Kelch domain (Homo sapiens, UniProt Q14145); assay: Fluorescence polarisation (FP) competition assay; conditions: for IC50: FP assay, Keap1 Kelch domain; for Ki: estimated from FP IC50 by the method described by Kenakin (ref 14), read-out: FP calcd Ki; for Percentage inhibition in FP assay: 100 μM concentration of inhibitor
T2 construct: made in house; host or cells: E. coli BL21 CodonPlus
T2 sequence (Q14145 321-609 limits assumed): as above

[3] = molecular target: T2, Keap1 Kelch domain; assay: Isothermal titration calorimetry (ITC); conditions: 25 °C, 50 μM protein, 500 μM peptide, 25 mM HEPES pH 7.4, 200 mM NaCl, 5% DMSO, mean of n≥2
Description: Isothermal titration calorimetry experiments
The protein was initially dialysed overnight against buffer containing 25 mM HEPES, pH 7.4
and 200 mM NaCl. The protein was diluted to a concentration of 50 μM prior to ITC. Inhibitors
were diluted to an appropriate concentration in dialysis buffer so that the final solution
contained no more than 5% DMSO. To maintain a similar buffer composition for titrations, 5%
DMSO was added to the protein solution. All peptides in this study were used at a
concentration of 500 μM. There were no detectable solubility issues at these concentrations
of the peptides in the dialysis buffer. ITC experiments were performed with a MicroCal PEAQ-
ITC instrument (Malvern Instruments, UK).
speed of around 750 rpm. In total 30 injections were performed for one protein inhibitor
experiment with the first injection of 0.3 μL followed by 29 injections of 1.3 μL and a gap of
120 s between each injection. Data analyses were performed after subtraction of the heats of
dilution for each experiment. The thermodynamic parameters N (stoichiometry), Kd
(dissociation constant/binding affinity), ∆S (entropy change) and ∆H (enthalpy change) were
obtained by using the single-site-binding model of the PEAQ-ITC analysis software (Malvern
Instruments, UK). For each experiment, at least two titrations were performed. Titration data
were analysed independently, and the obtained values were averaged.

| ΔTm at 10 µM [1] | IC50 [2] | Ki [2] | ITC TΔS [3] | ITC ΔG [3] | ITC ΔH [3] | Kd [3] | DSF ΔTm [1] | Percentage inhibition in FP assay [2] | Compound |
| --- | --- | --- | --- | --- | --- | --- | --- | --- | --- |
| ~2 °C | 745 ± 126 nM | 313 nM |  |  |  |  |  |  | CC(=O)N[C@@H](CC(=O)O)C(=O)N1CCC[C@H]1C(=O)N[C@@H](CCC(=O)O)C(=O)N[C@H](C(=O)NCC(=O)N[C@@H](CCC(=O)O)C(=O)N[C@@H](CC(C)C)C(=O)NCCC(C)C)[C@@H](C)O [compound 6, Ac‐Asp‐Pro‐Glu‐Thr‐Gly‐Glu‐Leu‐NH‐isopentyl] (Ac-DPETGEL-NHIsopentyl) |
| ~2 °C | 888 ± 28 nM | 373 nM |  |  |  |  |  |  | CC(=O)N[C@@H](CC(=O)O)C(=O)N1CCC[C@H]1C(=O)N[C@@H](CCC(=O)O)C(=O)N[C@H](C(=O)NCC(=O)N[C@@H](CCC(=O)O)C(=O)N[C@@H](CC(C)C)C(=O)NCc1ccccc1)[C@@H](C)O [compound 7, Ac‐Asp‐Pro‐Glu‐Thr‐Gly‐Glu‐Leu‐NH‐Bn] (Ac-DPETGEL-NHBn) |
| 6.2 ± 0.3 °C | 374 ± 31 nM | 157 nM |  |  |  |  |  |  | CC(=O)N[C@@H](CC(=O)O)C(=O)N1CCC[C@H]1C(=O)N[C@@H](CCC(=O)O)C(=O)N[C@H](C(=O)NCC(=O)N[C@@H](CCC(=O)O)C(=O)N[C@@H](CC(C)C)c1nnn[nH]1)[C@@H](C)O [compound 8, Ac‐Asp‐Pro‐Glu‐Thr‐Gly‐Glu‐Leu‐TET] (Ac-DPETGE-X1) |
| 5.8 ± 0.6 °C | 235 ± 16 nM | 99 nM | -1.69 ± 0.34 kcal/mol | -8.59 ± 0.12 kcal/mol | -10.25 ± 0.21 kcal/mol | 580 ± 90 nM |  |  | CC(=O)N[C@@H](CC(=O)O)C(=O)N1CCC[C@H]1C(=O)N[C@@H](CCC(=O)O)C(=O)N[C@H](C(=O)NCC(=O)N[C@@H](CCC(=O)O)C(=O)N[C@H](C(=O)O)C(C)(C)C)[C@@H](C)O [compound 9, Ac‐Asp‐Pro‐Glu‐Thr‐Gly‐Glu‐Tle‐OH] (Ac-DPETGE[Tle]-OH) |
| 5.3 ± 0.2 °C | 578 ± 25 nM | 243 nM |  |  |  |  |  |  | CC(=O)N[C@@H](CC(=O)O)C(=O)N1CCC[C@H]1C(=O)N[C@@H](CCC(=O)O)C(=O)N[C@H](C(=O)NCC(=O)N[C@@H](CCC(=O)O)C(=O)N[C@@H](Cc1cccs1)C(=O)O)[C@@H](C)O [compound 10, Ac‐Asp‐Pro‐Glu‐Thr‐Gly‐Glu‐Thi‐OH] (Ac-DPETGE[2Thi]-OH) |
| 5.8 ± 0.9 °C | 85 ± 14 nM | 36 nM | -0.29 ± 0.001 kcal/mol | -9.57 ± 0.21 kcal/mol | -9.83 ± 0.22 kcal/mol | 75 ± 6 nM |  |  | CC(=O)N[C@@H](CC(=O)O)C(=O)N1CCC[C@H]1C(=O)N[C@@H](CCC(=O)O)C(=O)N[C@H](C(=O)NCC(=O)N[C@@H](CCC(=O)O)C(=O)N[C@@H](CC1CCCCC1)C(=O)O)[C@@H](C)O [compound 11, Ac‐Asp‐Pro‐Glu‐Thr‐Gly‐Glu‐Cha‐OH] (Ac-DPETGE[Cha]-OH) |
| 8.3 ± 0.3 °C | 89 ± 6 nM | 37 nM | -3.84 ± 0.31 kcal/mol | -8.95 ± 0.17 kcal/mol | -12.83 ± 0.33 kcal/mol | 310 ± 10 nM |  |  | CC(=O)N[C@@H](CC(=O)O)C(=O)N1CSC[C@H]1C(=O)N[C@@H](CCC(=O)O)C(=O)N[C@H](C(=O)NCC(=O)N[C@@H](CCC(=O)O)C(=O)N[C@@H](CC(C)C)C(=O)O)[C@@H](C)O [compound 15, Ac‐Asp‐Thp‐Glu‐Thr‐Gly‐Glu‐Leu‐OH] (Ac-D[Thz]ETGEL-OH) |
| ~2 °C | 1060 ± 280 nM | 447 nM |  |  |  |  |  |  | CC(=O)N[C@@H](CC(=O)O)C(=O)N1CCCC[C@H]1C(=O)N[C@@H](CCC(=O)O)C(=O)N[C@H](C(=O)NCC(=O)N[C@@H](CCC(=O)O)C(=O)N[C@@H](CC(C)C)C(=O)O)[C@@H](C)O [compound 16, Ac‐Asp‐Pip‐Glu‐Thr‐Gly‐Glu‐Leu‐OH] (Ac-D[Pip]ETGEL-OH) |
| ~0.5 °C | 3040 ± 310 nM | 1280 nM |  |  |  |  |  |  | Ac-DPENGEL-OH [compound 14, Ac‐Asp‐Pro‐Glu‐Asn‐Gly‐Glu‐Leu‐OH] |
|  |  |  |  |  |  |  | ≈ 0.5 °C and 0.5±0.1 °C | 27 %^[c] | Ac‐Asp‐Pro‐Glu‐Bap‐Gly‐Glu‐Leu‐OH [compound 13] |
|  |  |  |  |  |  |  | ≈ 0.5 °C and 0.8±0.2 °C | 20 %^[c] | Ac‐Asp‐Pro‐Glu‐hPhe‐Gly‐Glu‐Leu‐OH [compound 12] |
